Test results as given in patent US11298355B2 (Aerovate Therapeutics, Inc., priority 2019, dated 2022).

Test: Thermal stability and polymorphism of imatinib salts
Assay type: physicochemical
Conditions: imatinib salt forms

O=S(=O)(O)CCO [isethionate]
thermal stability and polymorphic forms: suitable thermal stability and few or single polymorphic forms

malate
thermal stability and polymorphic forms: suitable thermal stability and few or single polymorphic forms

malonate
thermal stability and polymorphic forms: suitable thermal stability and few or single polymorphic forms

tartrate
thermal stability and polymorphic forms: suitable thermal stability and few or single polymorphic forms
